System: malignant glioma U87 cell line
Assay: WST-1 cell viability assay for PDT anti-cancer effectiveness
Assay type: cell-based
Details: 50 μM Hypericin, 2 hours incubation at 37° C., U87 cells, no simultaneous light; FIG. 11a
Description: To maximize light transmission, a 530±15 nm LED was used to verify the improvement in PDT efficiency with a developed light-guiding adhesive patch using the malignant glioma U87 cell line.
Specifically, the anti-cancer effectiveness through PDT was verified using the WST-1 cell viability assay. During the PDT efficiency verification, initial tests were conducted to establish PDT conditions, investigating the toxicity of the photosensitizer and light exposure.

In the case of Cc1cc(O)c2c(=O)c3c(O)cc(O)c4c5c(O)cc(O)c6c(=O)c7c(O)cc(C)c8c1c2c(c34)c(c78)c65 [Hypericin], the “inhibition of cell viability (toxicity of the photosensitizer)” value is reported as “No specific inhibition of cell viability”.

— patent US20250144442A1, “LIGHT-GUIDING ADHESIVE PATCH” (SAMSUNG LIFE PUBLIC WELFARE FOUNDATION, priority 2023, published 2025)
